The values below come from patent US5840918A, “Isoprenyl transferase inhibitors” (Eisai Co., Ltd., priority 1997, dated 1998).

One experiment deals with T1, FTase (Bos taurus, UniProt P29702+P49355).
T1 construct: bovine brain by inference from the cited Moores et al. 1991
Briefly: Inhibition of FTase-mediated prenylation (in vitro prenylation assay). In kind it is biochemical. The conditions noted are these: Table 1; partially purified FTase, 3 μM recombinant H-ras, 440 nM [3H]FPP, 15 min 37° C. From the text: (§1) Nanomolar concentrations of the indicated compounds were sufficient to inhibit farnesylation of ras proteins in vitro. For screening candidate compounds useful for the treatment of ras-associated tumors, the FTase assay is preferred. […] Substitutions which confer GGTase specificity as taught herein also produced potent inhibitors of GGTase.

In a further experiment the target is GGTase. Briefly: Inhibition of GGTase-mediated prenylation (in vitro prenylation assay). The settings on record: Table 1; partially purified GGTase, 5 μM recombinant H-ras (61L, CAIL), 1 μM [3H] geranylgeranyl diphosphate. Type of experiment: biochemical.
From the text: as §1

Experiment [1] concerns H-ras farnesylation in H-ras (61L) transformed NIH3T3 fibroblasts. Briefly: Inhibition of H-ras farnesylation in whole cells (Western blot). The conditions noted are these: Mus musculus, NIH3T3, 24 h, Table 2. In kind it is cell-based, mouse. Here is the method: The ability of compounds of the invention to inhibit H-ras farnesylation and rap1 geranylgeranylation in whole cells was determined. H-ras (61L) transformed NIH3T3 fibroblasts were generously provided by C. Der, Univ. N. Carolina. These fibroblasts were treated for 24 h with 50 μM lovastatin (control) or the indicated concentrations of inhibitor. The cells were lysed in 1% NP-40, 5 mM Tris-HCl (pH 8.0), 5 mM EDTA, 0.1 mM N-tosyl-L-phenylalanine chloromethyl ketone, 0.1 mM N-tosyl-L-lysine chloromethyl ketone, and 1 mM phenylmethylsulfonyl fluoride. The lysate was centrifuged (15000×g, 5 min.) and the supernatant was used as a cell extract. […] After transfer to IMMOBILON P™ membrane (Millipore), the blots were probed with LA069 mouse monoclonal antibody to H-ras (Quality Biotech), or rabbit polyclonal antibody to rap1/Krev (Santa Cruz Biotechnology). All Western blots were developed using ECL chemiluminescent reagents (Amersham).
Background: A western blot detects proteins with antibodies after separation by electrophoresis.

SMILES strings stand for the structures. pIC50: −log10 of the molar value.

What is called pIC50 is the negative decadic logarithm of the IC50, by convention in mol/L.

In the case of `CC(C)[C@@H](/C=C\C(Cc1ccccc1)C(=O)NC(CCC(N)=O)C(=O)O)/C=C/C(N)CS` (stereo partly drawn) [PD301], the pIC50 is 8.70 at FTase, 8.43 on GGTase and 5.35 in experiment [1].
For `CSCCC(NC(=O)C(/C=C\C(/C=C/C(N)CS)C(C)C)Cc1ccccc1)C(=O)O` (stereo not drawn) [PD311], the results for the pIC50 (at FTase; at GGTase; in experiment [1]) were 7.16, 6.24 and 6.00 to 7.00, respectively.
The like results for `CSCCC(NC(=O)C(/C=C\[C@@H](/C=C/C1CSC(C)(C)N1)C(C)C)Cc1ccccc1)C(=O)O` (stereo partly drawn) [PD321] were, in that order, 7.60, 7.85 and 6.00 to 7.00.
The like results for `CCOC(=O)[C@H](CCSC)NC(=O)C(/C=C/[C@@H](/C=C/C(N)CS)Cc1ccccc1)C(C)C` (stereo partly drawn) [PD351] were, in that order, 6.49, 5.60 and 5.48.
The like results for `CSCC[C@H](NC(=O)C(/C=C\[C@@H](/C=C/C(N)CS)C(C)C)Cc1ccccc1)C(=O)O` (stereo partly drawn) [PD401] were, in that order, 7.55, 5.85 and 6.00 to 7.00.
Turning to `COC(=O)[C@H](CCSC)NC(=O)C(/C=C/[C@@H](/C=C/C(N)CS)C(C)C)C(C)C` (stereo partly drawn) [PD411], the pIC50 at FTase was 6.25; on GGTase, 5.08; in experiment [1] it was 6.66.
The like results for `CCOC(=O)C(CCSC)NC(=O)C(C=CC(C=CC(N)CS)Cc1ccccc1)C(C)C` (stereo not drawn) [PD421] were, in that order, 6.24, 5.47 and 5.72.
The like results for `CSCC[C@H](NC(=O)C(/C=C/[C@H](C)/C=C/C(N)CS)Cc1ccccc1)C(=O)O` (stereo partly drawn) [PD441] were, in that order, 7.59, 6.77 and 5.38.
The like results for `COC(=O)[C@H](CCSC)N(C)C(=O)C(/C=C\[C@@H](/C=C/C(N)CS)C(C)C)Cc1ccccc1` (stereo partly drawn) [PD451] were, in that order, 6.84, 5.95 and 6.40.
`COC(=O)[C@H](CCSC)NC(=O)C(Cc1ccccc1)OC[C@@H](/C=C/C(N)CS)C(C)C` (stereo partly drawn) [PE011]: the pIC50 on FTase is 7.37; on GGTase, 5.99; in experiment [1], 8.00.
With `CSCC[C@H](NC(=O)C(Cc1ccccc1)OC[C@@H](/C=C/C(N)CS)C(C)C)C(=O)O` (stereo partly drawn) [PE021], the figures for the pIC50 (on FTase; on GGTase; in experiment [1]) were 8.05, 7.04 and 6.55, respectively.
The like results for `CC(C)[C@H](/C=C/C(N)CS)COC(Cc1ccccc1)C(=O)N[C@@H](CCS(C)(=O)=O)C(=O)O` (stereo partly drawn) [PE031] were, in that order, 7.70, 6.85 and 6.48.
`CSCCC(NC(=O)C(Cc1ccccc1)OCC(C=CC(N)CSSCC(N)C=CC(COC(Cc1ccccc1)C(=O)NC(CCSC)C(=O)O)C(C)C)C(C)C)C(=O)O` (stereo not drawn) [PE041]: the negative logarithm of the IC50 (pIC50) on FTase is 7.57; at GGTase, 6.80; in experiment [1], 6.72.
The like results for `COC(=O)C(CCSC)NC(=O)C(Cc1ccccc1)OCC(C=CC(N)CSSCC(N)C=CC(COC(Cc1ccccc1)C(=O)NC(CCSC)C(=O)OC)C(C)C)C(C)C` (stereo not drawn) [PE051] were, in that order, 6.54, 5.64 and 6.96.
The like results for `COC(=O)[C@H](CCS(C)(=O)=O)NC(=O)C(Cc1ccccc1)OC[C@@H](/C=C/C(N)CS)C(C)C` (stereo partly drawn) [PE061] were, in that order, 7.22, 5.20 and 5.96.
The like results for `COc1ccc(-c2ccc(C/C=C/[C@@H](N)CS)cc2C(=O)N[C@@H](CCSC)C(=O)O)cc1` [PM011] were, in that order, 5.95, 5.80 and less than 4.00.
For `C=Cc1ccc(C/C=C/C(N)CS)cc1C(=O)N[C@@H](CCSC)C(=O)O` (stereo partly drawn) [PM012], the values for the pIC50 (on FTase; at GGTase; in experiment [1]) were 8.70, 6.28 and 5.57, respectively.
As to `CSCC[C@H](NC(=O)c1cc(C/C=C/C(N)CS)ccc1-c1ccsc1)C(=O)O` (stereo partly drawn) [PM021], the pIC50 is 7.77 on FTase, 7.12 on GGTase and 5.68 in experiment [1].
The like results for `NC(C=CCc1ccc(-c2ccsc2)c(C(=O)NC(Cc2cccs2)C(=O)O)c1)CSSCC(N)C=CCc1ccc(-c2ccsc2)c(C(=O)NC(Cc2cccs2)C(=O)O)c1` (stereo not drawn) [PM022] were, in that order, 7.74, 6.89 and 4.88.
The like results for `COC(=O)[C@H](CCSC)NCc1cc(C/C=C/[C@@H](N)CS)ccc1-c1ccccc1` [PM031] were, in that order, 6.94, 5.85 and 4.60.
The like results for `COC(=O)[C@H](CCS(C)(=O)=O)NC(=O)c1cc(CCC[C@@H](N)CS)ccc1-c1ccsc1` [PM032] were, in that order, 7.03, 5.18 and 4.71.
For `COC(=O)[C@H](CCSC)NC(=O)c1cc(C/C=C/[C@@H](N)CS)ccc1-c1ccccc1` [PM041], the pIC50 is 6.74 on FTase, 5.85 at GGTase and 5.64 in experiment [1].
The like results for `CSCC[C@H](NC(=O)c1cc(C/C=C/[C@@H](N)CS)ccc1-c1cc(C(F)(F)F)cc(C(F)(F)F)c1)C(=O)O` [PM042] were, in that order, 5.51, 6.49 and less than 3.30.
The like results for `NC(=O)CC[C@H](NC(=O)c1cc(C/C=C/C(N)CS)ccc1-c1ccccc1)C(=O)O` (stereo partly drawn) [PM051] were, in that order, 9.07, 5.81 and 4.63.
The like results for `CSCC[C@H](NC(=O)c1cc(C/C=C/C(N)CS)ccc1-c1ccco1)C(=O)O` (stereo partly drawn) [PM052] were, in that order, 9.52, 6.72 and 5.59.
In the case of `CCc1ccc(C/C=C/C(N)CS)cc1C(=O)N[C@@H](CCSC)C(=O)O` (stereo partly drawn) [PM062], the figures for the pIC50 (on FTase; on GGTase; in experiment [1]) were 8.05, 6.38 and 6.44, respectively.
Take `CSCC[C@H](NC(=O)c1cc(C/C=C/C(N)CS)ccc1-c1ccc(C(F)(F)F)cc1)C(=O)O` (stereo partly drawn) [PM071]: the pIC50 at FTase is 6.15; on GGTase it was 6.02; in experiment [1] it was less than 4.00.
Turning to `CC(C)COC(=O)[C@H](CCS(C)(=O)=O)NC(=O)c1cc(C/C=C/[C@@H](N)CS)ccc1-c1ccsc1` [PM072], the pIC50 on FTase is 6.80; at GGTase, 5.40; in experiment [1], 5.62.
For the molecule `CSCC[C@H](NC(=O)c1cc(C/C=C/C(N)CS)ccc1-c1ccccc1)C(N)=O` (stereo partly drawn) [PM081], the pIC50 at FTase is 6.77; at GGTase, 5.77; in experiment [1], 4.63.
For `CSCC[C@H](NC(=O)c1cc(C/C=C/C(N)CS)ccc1-c1cccc2ccccc12)C(=O)O` (stereo partly drawn) [PM082], the pIC50 is 7.52 at FTase, 6.83 on GGTase and 4.68 in experiment [1].
The like results for `NC(/C=C/Cc1ccc(-c2ccccc2)c(C(=O)N[C@@H](CO)C(=O)O)c1)CS` (stereo partly drawn) [PM091] were, in that order, 8.70, less than 6.00 and 3.32.
The like results for `COC(=O)[C@H](Cc1cccs1)NC(=O)c1cc(C/C=C/C(N)CS)ccc1-c1ccsc1` (stereo partly drawn) [PM092] were, in that order, 6.67, 5.46 and 5.57.
The like results for `CSCC[C@H](NC(=O)c1cc(C/C=C\C(N)CS)ccc1-c1ccccc1)C(=O)O` (stereo partly drawn) [PM101] were, in that order, 7.62, 6.10 and 4.84.
For the molecule `CSCC[C@H](NC(=O)c1cccc(C/C=C/C(N)CS)c1)C(=O)O` (stereo partly drawn) [PM102], the pIC50 at FTase was 6.54; on GGTase, 5.31; in experiment [1], 4.59.
The like results for `CSCC[C@H](NC(=O)c1cc(C/C=C/C(N)CS)ccc1-c1cccc(C(F)(F)F)c1)C(=O)O` (stereo partly drawn) [PM111] were, in that order, 7.62, 6.61 and less than 4.00.
The like results for `CSCC[C@H](NC(=O)c1cc(C/C=C/C(N)CS)ccc1C)C(=O)O` (stereo partly drawn) [PM112] were, in that order, 8.92, 5.78 and 5.40.
As to `CSCC[C@H](NCc1cc(C/C=C/C(N)CS)ccc1-c1ccccc1)C(=O)O` (stereo partly drawn) [PM121], the values for the pIC50 (on FTase; on GGTase; in experiment [1]) were 7.66, 5.76 and 4.63, respectively.
The like results for `COc1ccc(C/C=C/C(N)CS)cc1C(=O)N[C@@H](CCSC)C(=O)O` (stereo partly drawn) [PM122] were, in that order, 8.52, 5.66 and 4.63.
The like results for `CC(C)C[C@H](NC(=O)c1cc(C/C=C/C(N)CS)ccc1-c1ccccc1)C(=O)O` (stereo partly drawn) [PM131] were, in that order, 6.22, 8.62 and less than 3.60.
For the molecule `COC(=O)[C@H](CCSC)NC(=O)c1cc(CCCC(N)CS)ccc1-c1ccsc1` (stereo partly drawn) [PM132], the pIC50 on FTase was 6.92; at GGTase it was 5.79; in experiment [1], 5.80.
The like results for `CSCCC(NC(=O)c1cc(CC=CC(N)CSSCC(N)C=CCc2ccc(-c3ccccc3)c(C(=O)NC(CCSC)C(=O)O)c2)ccc1-c1ccccc1)C(=O)O` (stereo not drawn) [PM141] were, in that order, 10.00, 7.80 and 5.01.
